Assay [1] deals with T1, High affinity choline transporter 1 (Homo sapiens, UniProt Q9GZV3).
T1 sequence (Q9GZV3 whole entry): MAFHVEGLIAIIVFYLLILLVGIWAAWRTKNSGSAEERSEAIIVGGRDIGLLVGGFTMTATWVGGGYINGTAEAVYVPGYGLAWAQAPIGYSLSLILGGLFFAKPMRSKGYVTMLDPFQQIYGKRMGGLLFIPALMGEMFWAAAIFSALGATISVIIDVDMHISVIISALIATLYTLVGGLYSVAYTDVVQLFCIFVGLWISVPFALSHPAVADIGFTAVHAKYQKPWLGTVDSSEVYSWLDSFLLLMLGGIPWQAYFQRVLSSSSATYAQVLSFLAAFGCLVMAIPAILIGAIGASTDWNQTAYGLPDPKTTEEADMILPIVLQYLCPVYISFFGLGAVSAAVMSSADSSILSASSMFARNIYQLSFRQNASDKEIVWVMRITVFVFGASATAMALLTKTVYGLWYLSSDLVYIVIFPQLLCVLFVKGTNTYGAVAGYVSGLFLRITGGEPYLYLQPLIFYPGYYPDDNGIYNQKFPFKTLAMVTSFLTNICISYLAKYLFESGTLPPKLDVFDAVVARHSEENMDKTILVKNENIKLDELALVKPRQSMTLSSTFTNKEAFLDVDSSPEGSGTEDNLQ
Description: human choline transporter potentiators, potency – cell-based, 10-point CRC, membrane potential dye, dose response (AID 602376). It counts as functional.

A short description of assay [2]: reduction of Shn3 3'UTR-driven luciferase in osteoblasts – cell-based, Clone20 osteoblasts, firefly luciferase, cherry-picked, dose response (AID 624132).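 Further: firefly luciferase luminescence from reporter carrying the Shn3 3'UTR in osteoblasts.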 It counts as functional.
Assay [3] is described as follows: non-specific 3'UTR reporter inhibition in Clone20-Shn3RL – cell-based, Renilla luciferase, cherry-picked, counter-screen for Shn3 inhibitor project, dose response (AID 624133). It counts as functional.
The nature of assay [4]: loss of viability in HepG2 cells – cell-based, CellTiter-Glo, cherry-picked, cytotoxicity control for Shn3 inhibitor project, dose response (AID 624134). The format is functional.
The target of assay [5] is Aryl hydrocarbon receptor (Homo sapiens, UniProt P35869). The note with it: Potency.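 Further: confirmatory quantitative high-throughput screen measuring activation of the AhR signaling pathway.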
For assay [6], the target named is Calcium/calmodulin-dependent protein kinase type II subunit alpha (Homo sapiens, UniProt Q9UQM7). Description: Navigating the Kinome. Panel member name: CAMK2A. The format is functional.
For assay [7], the target named is Tyrosine-protein kinase JAK3 (Homo sapiens, UniProt P52333). It counts as functional.
Assay [8] has as its target BDNF/NT-3 growth factors receptor (Homo sapiens, UniProt Q16620). The format is functional.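 Further: NTRK2 measured as one member of a broad kinome-wide kinase profiling panel.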
Assay [9] concerns the target T1, High affinity choline transporter 1. Description: human choline transporter blockers, potency – cell-based, 10-point CRC, membrane potential dye, dose response (AID 588401).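 Further: membrane potential dye fluorescence of choline-evoked depolarization via CHT.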 The format is functional.
Assay [10] shares this target. The assay can be described thus: human choline transporter blockers, potency – cell-based, 5-point CRC, membrane potential dye, dose response (AID 504840). It counts as functional.
Assay [11] concerns the target Glycogen synthase kinase-3 alpha (Homo sapiens, UniProt P49840). It counts as functional.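 Further: GSK3A result taken from a broad kinome-wide kinase panel.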
Assay [12] concerns the target Glycogen synthase kinase-3 beta (Homo sapiens, UniProt P49841). The format is functional.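 Further: value comes from a broad kinome profiling panel, with GSK3B as the panel member.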
The target of assay [13] is Dual specificity tyrosine-phosphorylation-regulated kinase 1A (Homo sapiens, UniProt Q13627). The format is functional.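 Further: measured against DYRK1A as one member of a broad kinome profiling panel.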
The target in assay [14] is Calcium/calmodulin-dependent protein kinase type II subunit beta (Homo sapiens, UniProt Q13554). The format is functional.
Assay [15] has as its target Dual specificity protein kinase CLK1 (Homo sapiens, UniProt P49759). The assay can be described thus: inhibition of human CLK1 activity – biochemical, cherry-picked samples, selectivity assay for Dyrk1A inhibitor project, dose response (AID 588811).
Assay [16] can be described thus: A cytotoxicity screen of small molecule inhibitors of the PhoP region in Salmonella typhi identified in the primary screen. [Related pubchem assays: 1850, 1864, 1985 ]. The format is functional.
The test system of a further assay is H9c2. Description: cells. It counts as functional, cell-based. The note with it: Rattus norvegicus, H9c2, Myocardium.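 Further: confirmatory concentration-response retest of ultra-high-throughput screening hits for modulation of myocardial damage; cell death induced by hydrogen peroxide oxidative stress; compound pretreatment for 60 min then peroxide exposure for 2 h; potency is for protecting the cells against peroxide damage rather than for killing them.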
The target of assay [17] is Heat shock protein HSP 90-alpha (Homo sapiens, UniProt P07900). It counts as functional, organism-based.
Assay [18] deals with HEK293. The assay can be described thus: cells. The format is functional, cell-based. To be noted: Homo sapiens.
In assay [19] the target is T2, Nuclear receptor subfamily 0 group B member 1 (Homo sapiens, UniProt P51843).
T2 sequence (P51843 whole entry): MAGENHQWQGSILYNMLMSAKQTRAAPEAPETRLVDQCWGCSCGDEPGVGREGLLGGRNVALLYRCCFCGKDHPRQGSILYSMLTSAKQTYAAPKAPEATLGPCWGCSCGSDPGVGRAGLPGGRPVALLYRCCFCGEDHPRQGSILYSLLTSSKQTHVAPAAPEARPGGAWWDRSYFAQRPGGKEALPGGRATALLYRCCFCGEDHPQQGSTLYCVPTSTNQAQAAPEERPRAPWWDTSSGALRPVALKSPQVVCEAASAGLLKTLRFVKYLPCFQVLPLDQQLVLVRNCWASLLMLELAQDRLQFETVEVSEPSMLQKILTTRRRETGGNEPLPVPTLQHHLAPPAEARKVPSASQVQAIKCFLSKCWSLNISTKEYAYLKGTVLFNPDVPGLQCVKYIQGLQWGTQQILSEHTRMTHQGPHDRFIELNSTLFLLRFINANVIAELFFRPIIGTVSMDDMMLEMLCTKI
The assay can be described thus: Luminescence-based cell-based high throughput dose response assay for inhibitors of the orphan nuclear receptor subfamily 0, group B, member 1 (DAX1; NR0B1). [Related pubchem assays (depositor defined):AID504766, AID504790]. It counts as functional.

Assay [20] deals with HEK293. Description: cells. To be noted: Homo sapiens.
The target in assay [21] is Ras and Rab interactor 1/Tyrosine-protein kinase ABL1 (Homo sapiens, UniProt P00519+Q13671). The format is functional.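 Further: biochemical TR-FRET dose-response test measuring inhibition of binding between Rin1 and Abl proteins.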
Assay [22] has as its system HEK293. The assay can be described thus: cells. The note with it: Homo sapiens. This is another data set of the same source.
For assay [23], the system named is HEK293. The assay can be described thus: inhibition of NOD1-driven NF-kB reporter – cell-based, luminescence, uHTS, primary screen (AID 1578). To be noted: Homo sapiens. The format is functional.
For assay [24], the target named is T3, Nucleotide-binding oligomerization domain-containing protein 1 (Homo sapiens, UniProt Q9Y239).
T3 sequence (Q9Y239 whole entry): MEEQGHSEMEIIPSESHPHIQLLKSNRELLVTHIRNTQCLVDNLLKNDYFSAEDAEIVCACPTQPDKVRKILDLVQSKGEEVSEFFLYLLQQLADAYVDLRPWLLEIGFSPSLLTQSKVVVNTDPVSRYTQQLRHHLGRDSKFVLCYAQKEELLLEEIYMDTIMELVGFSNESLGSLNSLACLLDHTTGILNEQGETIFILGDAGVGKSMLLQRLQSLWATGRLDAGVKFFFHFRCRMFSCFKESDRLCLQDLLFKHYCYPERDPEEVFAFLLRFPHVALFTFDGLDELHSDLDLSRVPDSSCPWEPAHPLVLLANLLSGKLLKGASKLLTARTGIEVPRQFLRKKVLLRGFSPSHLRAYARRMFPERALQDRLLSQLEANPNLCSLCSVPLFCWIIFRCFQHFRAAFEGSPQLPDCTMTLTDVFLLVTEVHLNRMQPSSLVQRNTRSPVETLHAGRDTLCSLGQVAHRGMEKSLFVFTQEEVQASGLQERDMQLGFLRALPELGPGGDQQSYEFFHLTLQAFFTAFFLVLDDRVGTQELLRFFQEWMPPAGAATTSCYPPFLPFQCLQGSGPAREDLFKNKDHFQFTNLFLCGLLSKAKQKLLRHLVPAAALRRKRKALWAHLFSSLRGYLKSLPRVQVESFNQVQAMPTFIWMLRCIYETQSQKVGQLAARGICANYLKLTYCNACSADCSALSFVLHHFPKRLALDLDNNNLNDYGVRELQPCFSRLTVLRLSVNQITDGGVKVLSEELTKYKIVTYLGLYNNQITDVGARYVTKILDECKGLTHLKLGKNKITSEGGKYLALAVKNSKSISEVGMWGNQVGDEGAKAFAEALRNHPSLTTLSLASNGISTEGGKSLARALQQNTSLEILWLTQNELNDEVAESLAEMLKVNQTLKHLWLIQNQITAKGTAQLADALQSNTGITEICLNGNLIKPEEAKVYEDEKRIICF
Description: blockers of NOD1 pathway activity – revised, SAR follow-up (AID 2333). It counts as functional.

The target of a further assay is Tumor necrosis factor (Homo sapiens, UniProt P01375). The assay can be described thus: analog potency on TNFa NF-kB signaling – cell-based, revised, SAR follow-up (AID 2337). The format is functional.
The test system of assay [25] is HEK293. Description: NOD2 signaling inhibitors in MDP-stimulated cells, cell-based, uHTS, luminescence (AID 2001). It counts as functional. To be noted: Homo sapiens.
Assay [26] relates to HEK293. The assay can be described thus: cells. The note with it: Homo sapiens. It counts as functional, cell-based. This is another data set of the same source.
For assay [27], the system named is HEK293. Description: cells. The note with it: Homo sapiens. The source holds these as a separate data set.
Assay [28] has as its system HEK293. Description: cells. The format is functional, cell-based. The note with it: Homo sapiens. This is another data set of the same source.
In assay [29] the test system is HEK293. The assay can be described thus: cells. It counts as functional, cell-based. To be noted: Homo sapiens. This is another data set of the same source.
Assay [30] deals with Nucleotide-binding oligomerization domain-containing protein 2 (Homo sapiens, UniProt Q9HC29). The assay can be described thus: inhibition of NOD2-driven NF-kB reporter – cell-based, luminescence, uHTS, HEK293 (AID 1566). It counts as functional.
For a further assay, the system named is Escherichia coli. Description: microbe, parasite or virus in culture.

Several values for one entry are separate records, joined by “and”; a condition that tells them apart may be missing. Equal values may be shown once. Activity calls are given as the source filed them. A value given as a limit tells only on which side of the number the result lay.

Chain of Aryl hydrocarbon receptor (P35869 whole entry): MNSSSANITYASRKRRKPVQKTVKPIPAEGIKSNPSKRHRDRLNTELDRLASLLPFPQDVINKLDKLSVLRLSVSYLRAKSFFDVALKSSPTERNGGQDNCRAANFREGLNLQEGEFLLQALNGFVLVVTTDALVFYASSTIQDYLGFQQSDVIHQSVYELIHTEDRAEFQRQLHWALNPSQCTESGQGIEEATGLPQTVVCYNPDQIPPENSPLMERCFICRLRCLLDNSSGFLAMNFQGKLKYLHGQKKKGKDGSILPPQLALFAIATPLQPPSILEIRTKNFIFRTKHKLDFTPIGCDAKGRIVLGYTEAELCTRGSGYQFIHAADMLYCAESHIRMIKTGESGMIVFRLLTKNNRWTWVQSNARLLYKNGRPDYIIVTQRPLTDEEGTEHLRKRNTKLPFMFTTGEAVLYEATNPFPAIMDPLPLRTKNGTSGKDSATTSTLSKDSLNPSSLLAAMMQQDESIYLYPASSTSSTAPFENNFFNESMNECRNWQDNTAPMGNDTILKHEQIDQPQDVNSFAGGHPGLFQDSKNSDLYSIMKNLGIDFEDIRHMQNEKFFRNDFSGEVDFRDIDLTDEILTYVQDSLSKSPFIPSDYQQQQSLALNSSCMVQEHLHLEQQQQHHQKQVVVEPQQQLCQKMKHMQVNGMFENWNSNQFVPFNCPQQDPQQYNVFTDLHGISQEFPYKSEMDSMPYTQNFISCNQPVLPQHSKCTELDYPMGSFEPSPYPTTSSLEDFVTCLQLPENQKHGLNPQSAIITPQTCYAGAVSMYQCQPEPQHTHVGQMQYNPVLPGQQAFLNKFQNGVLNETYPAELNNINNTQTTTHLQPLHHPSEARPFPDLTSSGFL
Chain of Dual specificity protein kinase CLK1 (P49759 whole entry): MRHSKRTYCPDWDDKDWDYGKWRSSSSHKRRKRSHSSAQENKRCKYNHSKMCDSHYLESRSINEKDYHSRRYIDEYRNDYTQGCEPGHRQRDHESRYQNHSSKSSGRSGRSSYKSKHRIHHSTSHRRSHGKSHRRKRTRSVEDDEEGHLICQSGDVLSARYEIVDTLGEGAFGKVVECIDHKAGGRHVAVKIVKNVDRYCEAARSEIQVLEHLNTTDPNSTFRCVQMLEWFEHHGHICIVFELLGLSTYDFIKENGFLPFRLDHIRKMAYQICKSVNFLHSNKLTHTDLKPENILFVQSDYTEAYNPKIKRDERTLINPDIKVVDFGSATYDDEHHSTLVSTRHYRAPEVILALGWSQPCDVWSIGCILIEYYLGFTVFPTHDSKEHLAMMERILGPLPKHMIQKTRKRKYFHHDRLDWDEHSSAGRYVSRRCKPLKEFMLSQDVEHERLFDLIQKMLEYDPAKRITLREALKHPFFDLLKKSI
Chain of Calcium/calmodulin-dependent protein kinase type II subunit alpha (Q9UQM7 whole entry): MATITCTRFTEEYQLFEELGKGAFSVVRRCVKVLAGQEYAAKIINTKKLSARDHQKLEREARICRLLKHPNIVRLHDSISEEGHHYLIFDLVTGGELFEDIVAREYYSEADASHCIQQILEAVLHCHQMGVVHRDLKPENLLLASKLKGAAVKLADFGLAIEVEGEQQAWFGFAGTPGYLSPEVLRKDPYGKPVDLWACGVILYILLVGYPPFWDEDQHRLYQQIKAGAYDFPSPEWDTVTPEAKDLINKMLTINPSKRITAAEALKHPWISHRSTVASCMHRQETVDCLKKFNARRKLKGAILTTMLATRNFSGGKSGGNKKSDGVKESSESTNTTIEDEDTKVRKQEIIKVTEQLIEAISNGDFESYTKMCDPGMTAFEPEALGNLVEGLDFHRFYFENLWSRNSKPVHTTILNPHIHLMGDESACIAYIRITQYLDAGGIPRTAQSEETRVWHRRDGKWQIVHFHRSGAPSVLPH
Chain of BDNF/NT-3 growth factors receptor (Q16620 whole entry): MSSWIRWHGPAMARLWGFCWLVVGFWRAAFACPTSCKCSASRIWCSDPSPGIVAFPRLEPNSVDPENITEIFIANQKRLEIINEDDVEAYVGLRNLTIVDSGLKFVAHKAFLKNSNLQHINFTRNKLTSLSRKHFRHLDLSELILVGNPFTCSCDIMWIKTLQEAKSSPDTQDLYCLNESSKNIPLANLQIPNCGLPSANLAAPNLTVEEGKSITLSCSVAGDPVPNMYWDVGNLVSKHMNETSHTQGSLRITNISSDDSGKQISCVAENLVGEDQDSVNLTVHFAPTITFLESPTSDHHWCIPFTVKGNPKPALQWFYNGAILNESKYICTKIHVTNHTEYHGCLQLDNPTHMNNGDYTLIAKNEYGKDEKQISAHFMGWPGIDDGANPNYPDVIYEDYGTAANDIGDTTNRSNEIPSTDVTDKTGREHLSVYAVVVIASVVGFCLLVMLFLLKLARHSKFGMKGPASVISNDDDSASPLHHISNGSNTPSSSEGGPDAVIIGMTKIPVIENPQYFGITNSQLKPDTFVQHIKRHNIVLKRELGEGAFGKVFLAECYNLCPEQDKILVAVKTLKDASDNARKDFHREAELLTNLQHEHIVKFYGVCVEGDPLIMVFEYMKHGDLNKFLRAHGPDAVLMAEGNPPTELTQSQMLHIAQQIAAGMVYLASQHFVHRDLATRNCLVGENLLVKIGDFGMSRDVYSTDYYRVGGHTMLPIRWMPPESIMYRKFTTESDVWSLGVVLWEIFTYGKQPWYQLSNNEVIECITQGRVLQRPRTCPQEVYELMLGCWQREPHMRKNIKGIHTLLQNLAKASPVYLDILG
Chain of Tumor necrosis factor (P01375 whole entry): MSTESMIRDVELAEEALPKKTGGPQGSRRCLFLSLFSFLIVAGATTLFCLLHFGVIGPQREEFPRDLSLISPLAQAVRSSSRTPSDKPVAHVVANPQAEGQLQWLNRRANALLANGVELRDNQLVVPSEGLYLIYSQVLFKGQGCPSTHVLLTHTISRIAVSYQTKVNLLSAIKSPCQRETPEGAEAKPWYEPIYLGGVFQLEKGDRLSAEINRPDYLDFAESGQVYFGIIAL
Chain of Calcium/calmodulin-dependent protein kinase type II subunit beta (Q13554 whole entry): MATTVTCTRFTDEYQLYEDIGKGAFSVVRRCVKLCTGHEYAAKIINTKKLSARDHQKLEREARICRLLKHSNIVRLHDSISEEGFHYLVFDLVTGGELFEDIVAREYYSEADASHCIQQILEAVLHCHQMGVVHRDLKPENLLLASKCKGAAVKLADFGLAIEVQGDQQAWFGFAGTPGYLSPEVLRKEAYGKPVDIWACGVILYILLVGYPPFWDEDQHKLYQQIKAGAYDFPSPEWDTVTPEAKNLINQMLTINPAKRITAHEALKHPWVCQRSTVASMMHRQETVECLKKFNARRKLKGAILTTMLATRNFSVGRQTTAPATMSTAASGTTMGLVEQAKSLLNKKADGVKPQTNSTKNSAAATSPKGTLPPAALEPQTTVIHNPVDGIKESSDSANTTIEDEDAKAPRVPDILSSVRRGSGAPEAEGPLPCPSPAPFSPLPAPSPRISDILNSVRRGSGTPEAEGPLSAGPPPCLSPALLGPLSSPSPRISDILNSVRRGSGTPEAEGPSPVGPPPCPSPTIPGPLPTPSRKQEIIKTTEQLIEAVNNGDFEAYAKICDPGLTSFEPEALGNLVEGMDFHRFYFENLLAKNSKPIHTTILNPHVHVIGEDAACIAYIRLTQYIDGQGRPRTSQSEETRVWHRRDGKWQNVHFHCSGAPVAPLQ
Chain of Glycogen synthase kinase-3 beta (P49841 whole entry): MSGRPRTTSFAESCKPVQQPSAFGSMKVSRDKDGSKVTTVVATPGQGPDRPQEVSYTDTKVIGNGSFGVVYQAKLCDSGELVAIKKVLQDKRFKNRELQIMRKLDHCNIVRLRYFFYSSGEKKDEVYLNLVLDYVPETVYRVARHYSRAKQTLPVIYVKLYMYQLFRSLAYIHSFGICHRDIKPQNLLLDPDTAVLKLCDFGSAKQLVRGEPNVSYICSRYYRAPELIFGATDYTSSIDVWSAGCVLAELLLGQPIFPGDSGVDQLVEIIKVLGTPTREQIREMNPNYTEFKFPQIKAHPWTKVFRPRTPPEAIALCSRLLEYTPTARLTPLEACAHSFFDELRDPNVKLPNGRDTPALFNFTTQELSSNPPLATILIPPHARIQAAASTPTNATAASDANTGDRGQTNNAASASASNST
Chain of Glycogen synthase kinase-3 alpha (P49840 whole entry): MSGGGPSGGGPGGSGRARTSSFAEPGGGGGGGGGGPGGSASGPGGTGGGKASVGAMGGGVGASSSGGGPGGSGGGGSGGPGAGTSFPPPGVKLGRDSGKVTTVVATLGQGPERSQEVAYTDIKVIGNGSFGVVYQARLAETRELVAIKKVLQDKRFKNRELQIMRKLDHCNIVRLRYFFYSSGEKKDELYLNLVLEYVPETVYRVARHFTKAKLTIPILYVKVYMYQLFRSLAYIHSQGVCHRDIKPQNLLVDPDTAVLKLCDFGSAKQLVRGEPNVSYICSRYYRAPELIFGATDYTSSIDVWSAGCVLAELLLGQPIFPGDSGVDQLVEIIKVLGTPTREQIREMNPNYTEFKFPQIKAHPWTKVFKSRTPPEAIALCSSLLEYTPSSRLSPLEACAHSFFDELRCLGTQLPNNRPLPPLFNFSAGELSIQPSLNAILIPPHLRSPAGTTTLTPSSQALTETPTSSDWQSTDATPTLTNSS

Broadly, the EC50 is the concentration that produces a half-maximal response. One may read the AC50 as the concentration giving half of the maximal activity seen. `CCN(CC)CCn1c(=N)n(CC(O)COc2cccc(C)c2)c2ccccc21` (centres undefined): in assay [1], the EC50 is 12.4 µM (active). The AC50 in assay [2] is 4.39 µM (active); in assay [3], 7.45 µM (active); in assay [4], 21.2 µM (active).

As to `O=c1cc(-c2ccc(O)cc2)oc2cc(O)cc(O)c12` [APIGENIN], in assay [5], the AC50 is 35.5 µM (inconclusive) and 28.2 µM (inconclusive).

By Ki is commonly meant a measure of affinity in units of concentration, obtained from inhibition or displacement. For the compound `Clc1cccc(Nc2nc(N3CCOCC3)nc(-n3cccn3)n2)c1`, the inhibition constant (Ki) was 2.51 µM (active) in assay [6], 3.16 µM (active) in assay [7] and 3.16 µM (active) in assay [8].

A word on the IC50: it is the concentration that gives 50% inhibition. For `O=c1c2ccccc2[nH]c(=S)n1CCN1CCCCC1`, the IC50 was 7.94 µM (active) in assay [9] and 8.77 µM (active) in [10].

`O=C1CN=C(c2cccc(Cl)c2)c2c(sc3c2CCCC3)N1`: the Ki was 3.98 µM (active) in assay [11], 3.16 µM (active) in assay [12], 2.51 µM (active) in assay [13] and 6.31 µM (active) in assay [14].

As to `Cc1ccsc1CNc1ncnc2ccc(-c3ccc4c(c3)OCO4)cc12`, the AC50 in assay [15] is 9.94 nM (active).

For `Cc1c(/N=C/c2cc(Br)cc(Br)c2O)cccc1C(=O)O`, in [16], the EC50 is > 50 µM (active). The IC50 with H9c2 was 20 µM (active); in [9], 2.67 µM (active); in assay [10], 3.44 µM (active). For the same compound, the AC50 in [17] was 3.56 µM (active).

For the compound `O=C(NCc1ccco1)/C(=C\C=C\c1ccccc1)NC(=O)c1ccco1`, the IC50 (with HEK293 [18]; in assay [19]) was > 67.5 µM (inactive) each time.

Consider `CC[C@]12c3[nH]c4ccc(OC)cc4c3CCN1C(=O)C(CC(=O)NCC13C[C@H]4C[C@@H](C1)C[C@@H](C3)C4)C[C@@H]2C(=O)N1CCN(C(=O)c2ccco2)CC1` (some centres undefined), for which the EC50 in the assay on HEK293 [20] and in the assay on HEK293 [22] was > 59.6 µM (inactive) throughout. Further, the IC50 in assay [21] was 4.2 µM (active).

For the compound `COc1ccc(CN(C)S(=O)(=O)c2nnc(NC(=O)c3cccc(F)c3)s2)cc1`, the EC50 is 1.8 µM (active) with HEK293 [23] and 12.7 µM (active) in [30]. The IC50 in assay [24] is 6.74 µM (active); on Tumor necrosis factor, 8.03 µM (active); in the assay with HEK293 [25], 12.3 µM (inactive); in the assay on HEK293 [26], > 20 µM (inactive); in the assay on HEK293 [27], > 20 µM (inactive); with HEK293 [28], 17.1 µM (active). The IC50 in the assay on HEK293 [29] is > 20 µM (inactive).

As to `C=CCC[C@H](Cc1ccc(F)cc1)C(=O)OC[C@@H](C)NC(=O)[C@H](CC=C)CC(=O)NCCO`, the AC50 in the assay with Escherichia coli was > 150 µM (inactive).

On to `CC1=C(C(=O)OCC2CCCO2)C(c2coc3ccc(Cl)cc3c2=O)C2=C(O)CCCC2=N1` (centres undefined), for which the IC50 (in the assay with HEK293 [18]; in assay [19]) was > 67.5 µM (inactive) in each case.

`Cc1ccc(C(=O)N2CCCC(CCC(=O)NCc3ccc(F)c(F)c3)C2)cn1` (centres undefined): the AC50 in the assay on Escherichia coli was 33.1 µM (active).

As to `c1nc(NCC2CCCO2)c2cc(-c3ccc4c(c3)OCO4)ccc2n1` (centres undefined), the AC50 in [15] is 11.3 nM (active).

Source of the values: ChEMBL document CHEMBL1201862, “PubChem BioAssay data set” (2004).
